Structures can show the parent of a compound that is named as a salt.
Test: In vivo distribution of 99mTc-labelled chelators in rats
Design: species or system male Wistar rats
Conditions: for GI tract accumulation/localization (share of the dose) / dose remaining in the blood / accumulation in the kidney / localization in urine: male Wistar rats; for GI tract accumulation/localization (share of the dose): 99mTc-labelled chelator 200 μL (200 μCi) i.v. tail vein, organs counted after 120 min images; for dose remaining in the blood / accumulation in the kidney / localization in urine: 99mTc-labelled chelator i.v. tail vein; for dose remaining in the blood: after 120 min images, blood volume assumed 8% body weight; for accumulation in the kidney: examples 1 and 2 approximately equal
Method: Approximately 1 mg of each chelator was dissolved in 200 μL saline or 200 μL ethanol:water (1:1) in a tube. To the tube was added 100-300 μL sodium ^99m Tc-pertechnetate (5-15 mCi), 100 μL phosphate buffer (0.25M, pH 7.4), and 200 μL of a solution containing 50 μg stannous chloride dihydrate and 40 mg sodium tartrate dihydrate. The tube was capped tightly and placed in a boiling water bath for 10 minutes.
After cooling, the reaction mixture was loaded onto a C-18 solid-phase extraction cartridge (Sep-Pak) which had been activated with 5 mL methanol and 5 mL 1 mM HCl. The cartridge was washed with 5 mM HCl and the eluate was collected in a test tube. The cartridge was then dried by forcing air through it. The product was eluted with 2 mL ethanol:water (1:1) and collected in a separate tube. The cartridge was placed in another tube and the three tubes were assayed in a radionuclide dose calibrator (ionization chamber). The yield was calculated as the activity in the ethanol:water eluate divided by the total activity in the three tubes under the assumption that the desired product was relatively lipophilic. A less lipophilic chelator would elute partially in the acid wash and the apparent yield would be low.
Distribution within rats of selected chelators and a reference chelator were determined using established protocols. Briefly, male Wistar rats (Charles River, 200 g) were anaesthetized with somnitol (40 to 50 mg/kg) and 200 μL of the labelled chelator (ie. 200 μCi) was injected intravenously via the tail vein. Serial whole-body scintigrams were acquired for first 10 minutes, After further images were obtained at 60 and 120 minutes, the rat was killed with anaesthesia and samples of organs (blood, heart, lung, liver, spleen, kidney, muscle, GI tract) were weighed and counted in either a well-type gamma counter or in a gamma dose calibrator. Dose calculations were made based on the assumption that rats weighed 200 g and that the blood volume constituted 8% body weight. All results were corrected for the residual dose in the tail.

GI tract excretion (in words) (in comparison with the N2S2 reference chelator, rats, i.v.)	GI tract accumulation/localization (share of the dose)	accumulation in the kidney	localization in urine	Structure (SMILES)	dose remaining in the blood	clearance from the blood (and other tissues), in words (rats, i.v.)	route of elimination (rats, i.v.)
remarkably low	about 9%	7-14%	–	O=C(CSC(=O)c1ccccc1)NNC(=O)NNC(=O)CSC(=O)c1ccccc1 [Example 1, N,N'-bis(S-benzoylmercaptoacetyl)-carbohydrazide]	about 14%	–	–
–	30%	7-14%	20%	N=C(NNC(=O)CSC(=O)c1ccccc1)NNC(=O)CSC(=O)c1ccccc1 [Example 2, N,N'-bis-(S-benzoylmercaptoacetyl)-1,3-diaminoguanidine hydrochloride]	about 10%	–	–
–	50%	–	25%	O=C(CNC(=O)CSC(=O)c1ccccc1)CNC(=O)CSC(=O)c1ccccc1 [Example 3, N,N'-bis-(S-benzoylmercaptoacetyl)-1,3-diaminoacetone]	3%	fastest clearance from the blood and other tissues	mainly eliminated through the liver and GI tract
